{
  "source": "ChEMBL document CHEMBL1151757",
  "about": "“Synthesis, radiosynthesis, and biological evaluation of fluorine-18-labeled 2beta-carbo(fluoroalkoxy)-3beta-(3'-((Z)-2-haloethenyl)phenyl)nortropanes: candidate radioligands for in vivo imaging of the serotonin transporter with positron emission tomography” (J Med Chem, 2008)",
  "data": [
    {"test_system": "Midbrain", "assay": "Drug uptake in anesthetized cynomolgus monkey brain midbrain after 1.5 mins postinjection", "assay_type": "ADME, organism-based, Macaca fascicularis", "set-up": "unit not given here", "details": "in vivo, 0.025 h", "values": [
      {"smiles": "O=C(OCC[18F])C1C2CCC(CC1c1ccc(/C=C\\I)cc1)N2", "note": "(stereo not given)", "Drug uptake": 0.1}
    ]},
    {"test_system": "Medulla", "assay": "Drug uptake in anesthetized cynomolgus monkey brain medulla after 195 mins postinjection", "assay_type": "ADME, organism-based, Macaca fascicularis", "details": "in vivo, 3.25 h", "values": [
      {"smiles": "O=C(OCC[18F])C1C2CCC(CC1c1ccc(/C=C\\I)cc1)N2", "note": "(stereo not given)", "Drug uptake": 3.41}
    ]},
    {"test_system": "not listed separately", "assay": "Ratio of drug uptake in medulla to cerebellum in anesthetized cynomolgus monkey after 185 mins postinjection", "assay_type": "ADME, organism-based, Macaca fascicularis", "details": "in vivo", "values": [
      {"smiles": "O=C(OCC[18F])C1C2CCC(CC1c1ccc(/C=C\\I)cc1)N2", "note": "(stereo not given)", "Ratio": 2.5}
    ]},
    {"test_system": "not listed separately", "assay": "Drug uptake in anesthetized cynomolgus monkey brain cerebellum after 225 mins postinjection", "assay_type": "ADME, organism-based, Macaca fascicularis", "details": "in vivo, 3.75 h", "values": [
      {"smiles": "O=C(OCC[18F])C1C2CCC(CC1c1ccc(/C=C\\I)cc1)N2", "note": "(stereo not given)", "Drug uptake": 1.08}
    ]},
    {"test_system": "Thalamus", "assay": "Drug uptake in anesthetized cynomolgus monkey brain thalamus after 205 mins postinjection", "assay_type": "ADME, organism-based, Macaca fascicularis", "details": "in vivo", "values": [
      {"smiles": "O=C(OCC[18F])C1C2CCC(CC1c1ccc(/C=C\\I)cc1)N2", "note": "(stereo not given)", "Drug uptake": 3.59}
    ]},
    {"test_system": "not listed separately", "assay": "Ratio of drug uptake in pons to cerebellum in anesthetized cynomolgus monkey after 185 mins postinjection", "assay_type": "ADME, organism-based, Macaca fascicularis", "details": "in vivo", "values": [
      {"smiles": "O=C(OCC[18F])C1C2CCC(CC1c1ccc(/C=C\\I)cc1)N2", "note": "(stereo not given)", "Ratio": 2.6}
    ]},
    {"test_system": "not listed separately", "assay": "Ratio of drug uptake in thalamus to cerebellum in anesthetized cynomolgus monkey after 95 mins postinjection", "assay_type": "ADME, organism-based, Macaca fascicularis", "details": "in vivo", "values": [
      {"smiles": "O=C(OCC[18F])C1C2CCC(CC1c1ccc(/C=C\\I)cc1)N2", "note": "(stereo not given)", "Ratio": 1.9}
    ]},
    {"test_system": "Thalamus", "assay": "Drug uptake in anesthetized cynomolgus monkey brain thalamus after 0.5 mins postinjection", "assay_type": "ADME, organism-based, Macaca fascicularis", "details": "in vivo", "values": [
      {"smiles": "O=C(OCC[18F])C1C2CCC(CC1c1ccc(/C=C\\I)cc1)N2", "note": "(stereo not given)", "Drug uptake": 0}
    ]},
    {"test_system": "Putamen", "assay": "Drug uptake in anesthetized cynomolgus monkey brain putamen after 35 mins postinjection", "assay_type": "ADME, organism-based, Macaca fascicularis", "set-up": "unit not given here", "details": "in vivo", "values": [
      {"smiles": "O=C(OCC[18F])C1C2CCC(CC1c1ccc(/C=C\\I)cc1)N2", "note": "(stereo not given)", "Drug uptake": 3.57}
    ]},
    {"test_system": "Putamen", "assay": "Drug uptake in anesthetized cynomolgus monkey brain putamen after 105 mins postinjection", "assay_type": "ADME, organism-based, Macaca fascicularis", "set-up": "unit not given here", "details": "in vivo, 1.75 h", "values": [
      {"smiles": "O=C(OCC[18F])C1C2CCC(CC1c1ccc(/C=C\\I)cc1)N2", "note": "(stereo not given)", "Drug uptake": 4.34}
    ]},
    {"test_system": "Thalamus", "assay": "Drug uptake in anesthetized cynomolgus monkey brain thalamus after 135 mins postinjection", "assay_type": "ADME, organism-based, Macaca fascicularis", "set-up": "unit not given here", "details": "in vivo, 2.25 h", "values": [
      {"smiles": "O=C(OCC[18F])C1C2CCC(CC1c1ccc(/C=C\\I)cc1)N2", "note": "(stereo not given)", "Drug uptake": 3.99}
    ]},
    {"test_system": "not listed separately", "assay": "Drug uptake in anesthetized cynomolgus monkey brain frontal lobe after 195 mins postinjection", "assay_type": "ADME, organism-based, Macaca fascicularis", "details": "in vivo, 3.25 h", "values": [
      {"smiles": "O=C(OCC[18F])C1C2CCC(CC1c1ccc(/C=C\\I)cc1)N2", "note": "(stereo not given)", "Drug uptake": 1.7}
    ]},
    {"test_system": "Caudate", "assay": "Drug uptake in anesthetized cynomolgus monkey brain caudate after 0.5 mins postinjection", "assay_type": "ADME, organism-based, Macaca fascicularis, Caudate nucleus", "details": "in vivo", "values": [
      {"smiles": "O=C(OCC[18F])C1C2CCC(CC1c1ccc(/C=C\\I)cc1)N2", "note": "(stereo not given)", "Drug uptake": 0}
    ]},
    {"test_system": "not listed separately", "assay": "Drug uptake in anesthetized cynomolgus monkey brain cerebellum after 22.5 mins postinjection", "assay_type": "ADME, organism-based, Macaca fascicularis", "details": "in vivo, 0.375 h", "values": [
      {"smiles": "O=C(OCC[18F])C1C2CCC(CC1c1ccc(/C=C\\I)cc1)N2", "note": "(stereo not given)", "Drug uptake": 2.63}
    ]},
    {"test_system": "Caudate", "assay": "Drug uptake in anesthetized cynomolgus monkey brain caudate after 165 mins postinjection", "assay_type": "ADME, organism-based, Macaca fascicularis, Caudate nucleus", "details": "in vivo, 2.75 h", "values": [
      {"smiles": "O=C(OCC[18F])C1C2CCC(CC1c1ccc(/C=C\\I)cc1)N2", "note": "(stereo not given)", "Drug uptake": 2.99}
    ]},
    {"test_system": "Caudate", "assay": "Drug uptake in anesthetized cynomolgus monkey brain caudate after 15.5 mins postinjection", "assay_type": "ADME, organism-based, Macaca fascicularis, Caudate nucleus", "details": "in vivo", "values": [
      {"smiles": "O=C(OCC[18F])C1C2CCC(CC1c1ccc(/C=C\\I)cc1)N2", "note": "(stereo not given)", "Drug uptake": 1.74}
    ]},
    {"test_system": "Thalamus", "assay": "Drug uptake in anesthetized cynomolgus monkey brain thalamus after 235 mins postinjection", "assay_type": "ADME, organism-based, Macaca fascicularis", "set-up": "unit not given here", "details": "in vivo", "values": [
      {"smiles": "O=C(OCC[18F])C1C2CCC(CC1c1ccc(/C=C\\I)cc1)N2", "note": "(stereo not given)", "Drug uptake": 3.34}
    ]},
    {"test_system": "not listed separately", "assay": "Drug uptake in anesthetized cynomolgus monkey brain frontal lobe after 95 mins postinjection", "assay_type": "ADME, organism-based, Macaca fascicularis", "details": "in vivo", "values": [
      {"smiles": "O=C(OCC[18F])C1C2CCC(CC1c1ccc(/C=C\\I)cc1)N2", "note": "(stereo not given)", "Drug uptake": 2.03}
    ]},
    {"test_system": "Caudate", "assay": "Drug uptake in anesthetized cynomolgus monkey brain caudate after 205 mins postinjection", "assay_type": "ADME, organism-based, Macaca fascicularis, Caudate nucleus", "details": "in vivo", "values": [
      {"smiles": "O=C(OCC[18F])C1C2CCC(CC1c1ccc(/C=C\\I)cc1)N2", "note": "(stereo not given)", "Drug uptake": 2.77}
    ]},
    {"test_system": "Midbrain", "assay": "Drug uptake in anesthetized cynomolgus monkey brain midbrain after 155 mins postinjection", "assay_type": "ADME, organism-based, Macaca fascicularis", "details": "in vivo", "values": [
      {"smiles": "O=C(OCC[18F])C1C2CCC(CC1c1ccc(/C=C\\I)cc1)N2", "note": "(stereo not given)", "Drug uptake": 4.65}
    ]},
    {"test_system": "not listed separately", "assay": "Ratio of drug uptake in occipital lobe to cerebellum in anesthetized cynomolgus monkey after 135 mins postinjection", "assay_type": "ADME, organism-based, Macaca fascicularis", "details": "in vivo, 2.25 h", "values": [
      {"smiles": "O=C(OCC[18F])C1C2CCC(CC1c1ccc(/C=C\\I)cc1)N2", "note": "(stereo not given)", "Ratio": 1.3}
    ]},
    {"test_system": "not listed separately", "assay": "Drug uptake in anesthetized cynomolgus monkey brain frontal lobe after 27.5 mins postinjection", "assay_type": "ADME, organism-based, Macaca fascicularis", "details": "in vivo", "values": [
      {"smiles": "O=C(OCC[18F])C1C2CCC(CC1c1ccc(/C=C\\I)cc1)N2", "note": "(stereo not given)", "Drug uptake": 1.76}
    ]},
    {"test_system": "not listed separately", "assay": "Ratio of drug uptake in thalamus to cerebellum in anesthetized cynomolgus monkey after 195 mins postinjection", "assay_type": "ADME, organism-based, Macaca fascicularis", "details": "in vivo, 3.25 h", "values": [
      {"smiles": "O=C(OCC[18F])C1C2CCC(CC1c1ccc(/C=C\\I)cc1)N2", "note": "(stereo not given)", "Ratio": 2.8}
    ]},
    {"test_system": "Pons", "assay": "Drug uptake in anesthetized cynomolgus monkey brain pons after 27.5 mins postinjection", "assay_type": "ADME, organism-based, Macaca fascicularis", "details": "in vivo", "values": [
      {"smiles": "O=C(OCC[18F])C1C2CCC(CC1c1ccc(/C=C\\I)cc1)N2", "note": "(stereo not given)", "Drug uptake": 2.58}
    ]},
    {"test_system": "not listed separately", "assay": "Ratio of drug uptake in pons to cerebellum in anesthetized cynomolgus monkey after 6.5 mins postinjection", "assay_type": "ADME, organism-based, Macaca fascicularis", "details": "in vivo", "values": [
      {"smiles": "O=C(OCC[18F])C1C2CCC(CC1c1ccc(/C=C\\I)cc1)N2", "note": "(stereo not given)", "Ratio": 0.8}
    ]}
  ]
}
